Laboratory results as given in patent US7022716B2, “Cyclic amine phenyl beta-3 adrenergic receptor agonists” (Wyeth, priority 2000, dated 2006).

The compounds below were run against T1, human β3 adrenergic receptor (Homo sapiens, UniProt P13945) (assay: cAMP (SPA) response in CHO cells transfected with human β3 adrenergic receptor). Details: maximal response relative to maximal response of isoproterenol at 10^-5 M.
T1 construct: Full length β3 AR clones (402 amino acids) containing the last 6 amino acids of hβ3-AR are prepared; expressed in transfected cells; host or cells: CHO (Chinese hamster ovary) cells
T1 sequence (P13945 whole entry): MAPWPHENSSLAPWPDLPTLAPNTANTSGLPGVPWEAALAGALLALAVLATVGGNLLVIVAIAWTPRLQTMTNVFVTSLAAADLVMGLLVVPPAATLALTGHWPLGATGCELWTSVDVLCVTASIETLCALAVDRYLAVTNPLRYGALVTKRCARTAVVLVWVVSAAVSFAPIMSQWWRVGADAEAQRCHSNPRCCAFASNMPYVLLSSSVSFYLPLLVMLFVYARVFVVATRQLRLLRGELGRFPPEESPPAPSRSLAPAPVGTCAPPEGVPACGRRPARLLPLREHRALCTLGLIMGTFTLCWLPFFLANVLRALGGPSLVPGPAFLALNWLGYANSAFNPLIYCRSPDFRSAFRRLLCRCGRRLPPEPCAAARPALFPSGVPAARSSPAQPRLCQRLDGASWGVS
Type: cell-based
Set-up: key: fraction of maximal isoproterenol (10^-5 M) response
Protocol: Binding to the receptors was measured in Chinese Hamster ovary (CHO) cells that were transfected with adrenergic receptors.
The corresponding primer sequences are described in Mantzoros, C. […] The four fragments are ligated into a pUC 18 plasmid (Gibco-BRL) and sequenced.
CHO cells were grown in 24-well tissue culture plates in Dulbecco's Modified Eagle Media with 10% fetal bovine serum, MEM non-essential amino acids, Penicillin-Streptompycin and Geneticin. On the day of test procedure, growth medium was replaced with preincubation media (Dulbecco's Modified Eagle, Media) and incubated for 30 minutes at 37° C. […] Test compounds were tested over a concentration range of 10^−9 M to 10^−5 M for β3 cells and 10^−8 to 10^−4 M for β1 and β2 transfected cells. Isoproterenol (10^−5 M) was used as an internal standard for comparison of activity. Cells were incubated at 37° C. on a rocker for 30 min with the β3 cells and 15 min for β1 and β2 cells. Incubation was stopped with the addition of 0.2N HCl and neutralized with 2.5N NaOH. The plates, containing the cells and neutralized media, were stored at −20 degrees celsius until ready to test for cAMP using the SPA test kit (Amersham).
Data Analysis and Results: Data collected from the SPA test procedure were analyzed as percent of the maximal isoproterenol response at 10^−5 M. Activity curves were plotted using the SAS statistical and graphics software.

IA(β3) | SMILES
1.2 | CCCCS(=O)(=O)Nc1ccc(N2CCC(NC[C@H](O)COc3ccc(O)c(NS(=O)(=O)c4ccccc4)c3)CC2)cc1 [Example 315, N-[5-({(2S)-3-[(1-{4-[(Butylsulfonyl)amino]phenyl}-4-piperidinyl)amino]-2-hydroxypropyl}oxy)-2-hydroxyphenyl]benzenesulfonamide]
0.97 | CS(=O)(=O)Nc1cc([C@@H](O)CNC2CCN(c3ccc(NS(=O)(=O)c4ccc(C(=O)O)cc4)cc3)CC2)ccc1O [Example 317, 4-[(4-{4-[((2R)-2-Hydroxy-2-{4-hydroxy-3-[(methylsulfonyl)amino]phenyl}ethyl)amino]-1-piperidinyl}anilino)sulfonyl]benzoic acid]
1 | CCOC(=O)c1ccc(S(=O)(=O)Nc2ccc(N3CCC(NC[C@H](O)c4ccc(O)c(NS(C)(=O)=O)c4)CC3)cc2)cc1 [Example 318, Ethyl4-[(4-{4-[((2R)-2-hydroxy-2-{4-hydroxy-3-[(methylsulfonyl)amino]phenyl}ethyl)-amino]-1-piperidinyl}anilino)sulfonyl]benzoate]
0.79 | COC(=O)COc1ccc(S(=O)(=O)Nc2ccc(N3CCC(NC[C@H](O)c4ccc(Cl)c(NS(C)(=O)=O)c4)CC3)cc2)cc1 [Example 319, Methyl{4-[(4-{4-[((2R)-2-{4-chloro-3-[(methylsulfonyl)amino]phenyl}-2-hydroxyethyl)amino]-1-piperidinyl}anilino)sulfonyl]phenoxy}acetate]
0.87 | COC(=O)c1sccc1S(=O)(=O)Nc1ccc(N2CCC(NC[C@H](O)c3ccc(O)c(NS(C)(=O)=O)c3)CC2)cc1 [Example 320, Methyl3-[(4-{4-[((2R)-2-hydroxy-2-{4-hydroxy-3-[(methylsulfonyl)amino]-phenyl}ethyl)amino]-1-piperidinyl}anilino)sulfonyl]-2-thiophenecarboxylate]
1.05 | CS(=O)(=O)Nc1cc([C@@H](O)CNC2CCN(c3ccc(NS(=O)(=O)c4ccsc4C(=O)O)cc3)CC2)ccc1O [Example 321, 3-[(4-{4-[((2R)-2-Hydroxy-2-{4-hydroxy-3-[(methylsulfonyl)amino]phenyl}ethyl)amino]-1-piperidinyl}anilino)sulfonyl]-2-thiophenecarboxylic acid]
0.89 | CS(=O)(=O)Nc1cc([C@@H](O)CNC2CCN(c3ccc(NS(=O)(=O)CC(=O)OCc4ccccc4)cc3)CC2)ccc1O [Example 322, Benzyl[(4-{4-[((2R)-2-hydroxy-2-{4-hydroxy-3-[(methylsulfonyl)amino]phenyl}-ethyl)amino]-1-piperidinyl}anilino)sulfonyl]acetate]
0.92 | CS(=O)(=O)Nc1cc([C@@H](O)CNC2CCN(c3ccc(NS(=O)(=O)CC(=O)O)cc3)CC2)ccc1O [Example 323, [(4-{4-[((2R)-2-Hydroxy-2-{4-hydroxy-3-[(methylsulfonyl)amino]phenyl}ethyl)amino]-1-piperidinyl}anilino)sulfonyl]acetic acid]
0.9 | CCCCN(c1ccc(N2CCC(NC[C@H](O)c3ccc(O)c(NS(C)(=O)=O)c3)CC2)cc1)S(=O)(=O)CC(=O)OCc1ccccc1 [Example 324, Benzyl[(butyl-4-{4-[((2R)-2-hydroxy-2-{4-hydroxy-3-[(methylsulfonyl)amino]phenyl}-ethyl)amino]-1-piperidinyl)anilino)sulfonyl}acetate]
1.3 | CS(=O)(=O)Nc1cc([C@@H](O)CNC2CCN(c3ccc(NS(=O)(=O)c4cccnc4)cc3)CC2)ccc1O [Example 326, N-(4-{4-[((2R)-2-Hydroxy-2-{4-hydroxy-3-[(methylsulfonyl)amino]phenyl}ethyl)amino]-1-piperidinyl}phenyl)-3-pyridinesulfonamide]
0.86 | O=c1[nH]c2cccc(OC[C@@H](O)CNC3CCN(c4ccc(NS(=O)(=O)c5ccc(Cl)c(Cl)c5)cc4)CC3)c2[nH]1 [Example 327, 3,4-Dichloro-N-{4-[4-({(2S)-2-hydroxy-3-[(2-oxo-2,3-dihydro-1H-benzimidazol-4-yl)oxy]propyl}amino)-1-piperidinyl]phenyl}benzenesulfonamide]
0.89 | O=c1[nH]c2cccc(OC[C@@H](O)CNC3CCN(c4ccc(NS(=O)(=O)c5ccc(C(F)(F)F)cc5)cc4)CC3)c2[nH]1 [Example 328]
0.9 | O=c1[nH]c2cccc(OC[C@@H](O)CNC3CCN(c4ccc(NS(=O)(=O)c5ccc(OC(F)(F)F)cc5)cc4)CC3)c2[nH]1 [Example 329, N-{4-[4-({(2S)-2-Hydroxy-3-[(2-oxo-2,3-dihydro-1H-benzimidazol-4-yl)oxy]propyl}-amino)-1-piperidinyl]phenyl}-4-(trifluoromethoxy)benzenesulfonamide]
0.98 | COc1ccc(S(=O)(=O)Nc2ccc(N3CCC(NC[C@H](O)COc4cccc5[nH]c(=O)[nH]c45)CC3)cc2)cc1 [Example 330, N-{4-[4-({(2S)-2-Hydroxy-3-[(2-oxo-2,3-dihydro-1H-benzimidazol-4-yl)oxy]propyl}-amino)-1-piperidinyl]phenyl}-4-methoxybenzenesulfonamide]

The remaining lines, values behind:

SMILES | IA(β3)
COc1ccc(S(=O)(=O)Nc2ccc(N3CCC(NC[C@H](O)COc4ccc(O)c5c4CCC(=O)N5)CC3)cc2)cc1OC [Example 303, N-{4-[4-({(2S)-2-Hydroxy-3-[(8-hydroxy-2-oxo-1,2,3,4-tetrahydro-5-quinolinyl)oxy]-propyl}amino)-1-piperidinyl]phenyl}-3,4-dimethoxybenzenesulfonamide] | 0.96
CCCCCCCCS(=O)(=O)Nc1ccc(N2CCC(NC[C@H](O)COc3ccc(O)cc3)CC2)cc1 [Example 304, N-[4-(4-{[(2S)-2-Hydroxy-3-(4-hydroxyphenoxy)propyl]amino}-1-piperidinyl)phenyl]-1-octanesulfonamide] | 0.35
CCCCCCNC(=O)Nc1ccc(S(=O)(=O)Nc2ccc(N3CCC(NC[C@H](O)COc4ccc(O)c5c4CCC(=O)N5)CC3)cc2)cc1 [Example 305, 4-{[(Hexylamino)carbonyl]amino}-N-{4-[4-({(2S)-2-hydroxy-3-[(8-hydroxy-2-oxo-1,2,3,4-tetrahydro-5-quinolinyl)oxy]propyl}amino)-1-piperidinyl]phenyl}benzenesulfonamide] | 1
CCCCS(=O)(=O)Nc1ccc(N2CCC(NC[C@H](O)COc3ccc(O)c4c3CCC(=O)N4)CC2)cc1 [Example 306, N-{4-[4-({(2S)-2-Hydroxy-3-[(8-hydroxy-2-oxo-1,2,3,4-tetrahydro-5-quinolinyl)oxy]-propyl}amino)-1-piperidinyl]phenyl}-1-butanesulfonamide] | 1.1
CC(=O)Nc1ccc(S(=O)(=O)Nc2ccc(N3CCC(NC[C@H](O)COc4ccc(O)c5c4CCC(=O)N5)CC3)cc2)cc1 [Example 307, N-[4-({4-[4-({(2S)-2-Hydroxy-3-[(8-hydroxy-2-oxo-1,2,3,4-tetrahydro-5-quinolin)oxy]propyl}amino)-1-piperidinyl]anilino}sulfonyl)phenyl]acetamide] | 1
COc1ccc(S(=O)(=O)Nc2ccc(N3CCC(NC[C@H](O)COc4ccc(O)c(NS(C)(=O)=O)c4)CC3)cc2)cc1OC [Example 308, N-(4-{4-[((2S)-2-Hydroxy-3-{4-hydroxy-3-[(methylsulfonyl)amino]phenoxy}propyl)-amino]-1-piperidinyl}phenyl)-4-dimethoxybenzenesulfonamide] | 1.4
CCCCS(=O)(=O)Nc1ccc(N2CCC(NC[C@H](O)COc3ccc(O)c(NS(C)(=O)=O)c3)CC2)cc1 [Example 309, N-(4-{4-[((2S)-2-Hydroxy-3-{4-hydroxy-3-[(methylsulfonyl)amino]phenoxy}-propyl)amino]-1-piperidinyl}phenyl)-1-butanesulfonamide] | 1
CCCCCCNC(=O)Nc1ccc(S(=O)(=O)Nc2ccc(N3CCC(NC[C@H](O)COc4ccc(O)c(NS(C)(=O)=O)c4)CC3)cc2)cc1 [Example 310] | 1
CCCCCCNC(=O)Nc1ccc(S(=O)(=O)Nc2ccc(N3CCC(NC[C@H](O)c4cccc(Cl)c4)CC3)cc2)cc1 [Example 311, N-[4-(4-{[(2R)-2-(3-Chlorophenyl)-2-hydroxyethyl]amino-}-piperidinyl)phenyl]-4-{[(hexylamino)carbonyl]amino}benzenesulfonamide] | 0.82
CCOC(=O)Cc1ccc(S(=O)(=O)Nc2ccc(N3CCC(NC[C@H](O)COc4ccc(O)c(NS(C)(=O)=O)c4)CC3)cc2)cc1 [Example 312, Ethyl{4-[(4-}4-[((2S)-2hydroxy-3-{4-hydroxy-3-[(methylsulfonyl)amino]-phenoxy{propyl)amino]-1-piperidinyl}anilino)sulfonyl]phenyl}acetate] | 1.1
COC(=O)COc1ccc(S(=O)(=O)Nc2ccc(N3CCC(NC[C@H](O)c4ccc(O)c(NS(C)(=O)=O)c4)CC3)cc2)cc1 [Example 313, Methyl{4-[(4-{4-[((2R)-2-hydroxy-2-{4-hydroxy-3-[(methylsulfonyl)amino]-phenyl}ethyl)amino]-1piperidinyl}anilino)sulfonyl]phenoxy}acetate] | 1
